Results from the supplement of paper PMC10307832.

Experiments:
Assay in all cases: relative viability (nuclei count vs DMSO), 5 days (fraction); higher = more cells survive
BI-2536 + Trametinib = compound: CC[C@@H]1C(=O)N(C)c2cnc(Nc3ccc(C(=O)NC4CCN(C)CC4)cc3OC)nc2N1C1CCCC1 [BI-2536] + CC(=O)Nc1cccc(-n2c(=O)n(C3CC3)c(=O)c3c(Nc4ccc(I)cc4F)n(C)c(=O)c(C)c32)c1 [Trametinib] (partner 0.02 µM)
Summary of the method: (§1)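 Nuclei were stained with Hoechst during a one-step fixation (final 0.05% Triton X-100, 1% formaldehyde, 1 ug/ml Hoechst) carried out 5 days after dosing, then counted on 4× images. The cells, lung cancer lines in 1536-well plates, had been dosed by pin tool the day after seeding with one drug alone or a fixed anchor-drug dose plus five library-drug doses (not always all listed) in √10 steps. Relative viability is the nuclei count in treated wells divided by that in vehicle wells, and each value is the median of duplicate plates.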

BI-2536 + Foretinib = compound: CC[C@@H]1C(=O)N(C)c2cnc(Nc3ccc(C(=O)NC4CCN(C)CC4)cc3OC)nc2N1C1CCCC1 [BI-2536] + COc1cc2c(Oc3ccc(NC(=O)C4(C(=O)Nc5ccc(F)cc5)CC4)cc3F)ccnc2cc1OCCCN1CCOCC1 [Foretinib] (partner 0.25 µM)
Summary of the method: as §1

[1] = compound: CC1CC(=O)N(C2=CN=C(N=C2N1C3CCCC3)NC4=C(C=C(C=C4)C(=O)NC5CCN(CC5)C)OC)C [NPK76-II-72-1] + Cc1nc(Nc2ncc(C(=O)Nc3c(C)cccc3Cl)s2)cc(N2CCN(CCO)CC2)n1 [Dasatinib] (partner 0.075 µM)
Summary of the method: as §1

BI-2536 + Pictilisib = compound: CC[C@@H]1C(=O)N(C)c2cnc(Nc3ccc(C(=O)NC4CCN(C)CC4)cc3OC)nc2N1C1CCCC1 [BI-2536] + CS(=O)(=O)N1CCN(Cc2cc3nc(-c4cccc5[nH]ncc45)nc(N4CCOCC4)c3s2)CC1 [Pictilisib] (partner 1 µM)
Summary of the method: as §1

Cell Line | relative viability (BI-2536 + Trametinib; first compound 0.01 µM) | relative viability (BI-2536 + Trametinib; first compound 0.03162 µM) | relative viability (BI-2536 + Trametinib; first compound 0.1 µM) | relative viability (BI-2536 + Trametinib; first compound 0.3162 µM) | relative viability (BI-2536 + Trametinib; first compound 1 µM) | relative viability (BI-2536 + Foretinib; first compound 0.01 µM) | relative viability (BI-2536 + Foretinib; first compound 0.03162 µM) | relative viability (BI-2536 + Foretinib; first compound 0.1 µM) | relative viability (BI-2536 + Foretinib; first compound 0.3162 µM) | relative viability (BI-2536 + Foretinib; first compound 1 µM) | relative viability ([1]; first compound 0.01 µM) | relative viability ([1]; first compound 0.03162 µM) | relative viability ([1]; first compound 0.1 µM) | relative viability ([1]; first compound 0.3162 µM) | relative viability ([1]; first compound 1 µM) | relative viability (BI-2536 + Pictilisib; first compound 0.01 µM) | relative viability (BI-2536 + Pictilisib; first compound 0.03162 µM) | relative viability (BI-2536 + Pictilisib; first compound 0.1 µM) | relative viability (BI-2536 + Pictilisib; first compound 0.3162 µM) | relative viability (BI-2536 + Pictilisib; first compound 1 µM)
201T | 0.717 | 0.741 | 0.745 | 0.253 | 0.252 | 1.1 | 0.896 | 0.612 | 0.184 | 0.212 | 0.574 | 0.614 | 0.52 | 0.525 | 0.59 | 0.686 | 0.618 | 0.586 | 0.253 | 0.308
NCI-H2126 | 0.622 | 0.597 | 0.517 | 0.234 | 0.228 | 1.43 | 1.28 | 1.05 | 0.309 | 0.27 | 0.594 | 0.591 | 0.58 | 0.607 | 0.709 | 0.509 | 0.48 | 0.27 | 0.247 | 0.253
HOP-62 | 0.315 | 0.353 | 0.401 | 0.167 | 0.152 | 1.19 | 1.05 | 0.767 | 0.182 | 0.146 | 0.585 | 0.653 | 0.633 | 0.672 | 0.64 | 0.704 | 0.965 | 0.159 | 0.0849 | 0.127
CAL-12T | 0.344 | 0.338 | 0.383 | 0.147 | 0.157 | 1.08 | 0.951 | 0.503 | 0.173 | 0.187 | 0.369 | 0.379 | 0.364 | 0.319 | 0.391 | 0.536 | 0.401 | 0.178 | 0.181 | 0.141
NCI-H520 | 0.712 | 0.503 | 0.352 | 0.187 | 0.164 | 0.678 | 0.632 | 0.242 | 0.184 | 0.218 | 0.203 | 0.172 | 0.178 | 0.187 | 0.252 | 0.287 | 0.232 | 0.268 | 0.172 | 0.162
NCI-H1755 | 0.78 | 0.784 | 0.689 | 0.367 | 0.363 | 0.949 | 0.819 | 0.618 | 0.27 | 0.292 | 0.377 | 0.448 | 0.429 | 0.357 | 0.497 | 0.424 | 0.399 | 0.157 | 0.151 | 0.175
NCI-H2023 | 0.53 | 0.528 | 0.25 | 0.113 | 0.102 | 0.864 | 0.914 | 0.671 | 0.0855 | 0.0903 | 0.511 | 0.63 | 0.605 | 0.583 | 0.603 | 0.218 | 0.211 | 0.091 | 0.0927 | 0.094
NCI-H2009 | 0.262 | 0.246 | 0.336 | 0.131 | 0.159 | 1.18 | 0.94 | 0.547 | 0.265 | 0.279 | 0.297 | 0.342 | 0.301 | 0.287 | 0.317 | 0.779 | 0.358 | 0.179 | 0.137 | 0.103
